According to ChEMBL document CHEMBL4118122, “Identification and biological evaluation of thiazole-based inverse agonists of RORγt” (Bioorg Med Chem Lett, 2018):

How the values were obtained:
Substance-K receptor = Substance-K receptor (Homo sapiens, UniProt P21452); assay: Displacement of [125I]NKA from human recombinant NK2 receptor after 60 mins by scintillation counting analysis
[1] = target: T1, Neurotensin receptor type 1 (Homo sapiens, UniProt P30989); assay: Displacement of [125I]Tyr3-neurotensin from human recombinant NTS1 receptor after 120 mins by scintillation counting analysis
[2] = target: Endothelin-1 receptor (Homo sapiens) (UniProt P25101); assay: Displacement of [125I]-endothelin-1 from human recombinant ETA receptor at 10 uM after 120 mins by scintillation counting analysis relative to control
[3] = target: Type-1 angiotensin II receptor (Homo sapiens) (UniProt P30556); assay: Displacement of [125I][Sar1,Ile8]-AT-II from human recombinant AT1 receptor at 1 uM after 120 mins by scintillation counting analysis relative to control
[4] = target: Mitogen-activated protein kinase 1 (Homo sapiens) (UniProt P28482); assay: Inhibition of recombinant GST-tagged human ERK2 expressed in Escherichia coli at 10 uM in presence of ATP relative to control
[5] = target: 5-hydroxytryptamine receptor 2B (Homo sapiens, UniProt P41595); assay: Displacement of [125I]+/-DOI from human recombinant 5-HT2B receptor at 1 uM after 60 mins by scintillation counting analysis relative to control
[6] = target: Epidermal growth factor receptor (Homo sapiens) (UniProt P00533); assay: Inhibition of recombinant GST-tagged human EGFR (668 to 1210 residues) expressed in baculovirus expression system at 10 uM in presence of ATP relative to control
[7] = target: C-X-C chemokine receptor type 2 (Homo sapiens) (UniProt P25025); assay: Displacement of [125I]IL-8 from human recombinant CXCR2 receptor at 10 uM after 60 mins by scintillation counting analysis relative to control
[8] = target: Calcium/calmodulin-dependent protein kinase type II subunit alpha (Homo sapiens) (UniProt Q9UQM7); assay: Inhibition of CamK2alpha (unknown origin) at 10 uM in presence of ATP relative to control
[9] = target: Neuromedin-K receptor (Homo sapiens) (UniProt P29371); assay: Displacement of [3H]SR 142801 from human recombinant NK3 receptor at 1 uM after 120 mins by scintillation counting analysis relative to control
PXR (NR1I2) = target: T2, PXR (NR1I2) (Homo sapiens, UniProt O75469); assay: […] at PXR LBD (unknown origin) expressed in HEK293 cells […] at 1 uM after 16 hrs by luciferase reporter gene assay relative to rifampicin; type: ADME, cell-based; conditions: HEK293 cells expressing PXR LBD, read-out: Efficacy
T2 sequence (O75469 whole entry): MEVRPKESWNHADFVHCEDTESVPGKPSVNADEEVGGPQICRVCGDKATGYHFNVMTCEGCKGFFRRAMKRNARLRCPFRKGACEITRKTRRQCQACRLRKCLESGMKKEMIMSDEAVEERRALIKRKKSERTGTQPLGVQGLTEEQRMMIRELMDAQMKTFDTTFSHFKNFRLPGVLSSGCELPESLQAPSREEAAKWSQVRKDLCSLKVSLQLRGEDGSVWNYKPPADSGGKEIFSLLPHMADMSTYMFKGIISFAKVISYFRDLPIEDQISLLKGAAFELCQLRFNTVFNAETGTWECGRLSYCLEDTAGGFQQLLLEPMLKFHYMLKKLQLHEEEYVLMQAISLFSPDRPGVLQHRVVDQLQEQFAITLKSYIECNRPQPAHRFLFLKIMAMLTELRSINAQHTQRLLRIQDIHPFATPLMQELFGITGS

[10] = target: Proto-oncogene tyrosine-protein kinase Src (Homo sapiens) (UniProt P12931); assay: Inhibition of recombinant full length C-terminal His-tagged human Src cytoplasmic domain expressed in baculovirus expression system at 10 uM in presence of ATP relative to control
[11] = Half life in rat microsomes; type: ADME, Microsome
Vasopressin V1a receptor [12] = target: T3, Vasopressin V1a receptor (Homo sapiens, UniProt P37288); assay: Displacement of [3H]AVP from human recombinant V1a receptor after 60 mins by scintillation counting analysis
[13] = Cmax in Sprague-Dawley rat at 5 mg/kg, po; type: ADME, organism-based; parameters: dose 5 mg/kg, route oral; conditions: in vivo
[14] = target: Serine/threonine-protein kinase Nek2 (Homo sapiens) (UniProt P51955); assay: Inhibition of recombinant full length His-tagged human NEK2 expressed in baculovirus expression system at 10 uM in presence of ATP relative to control
[15] = target: 5-hydroxytryptamine receptor 2A (Homo sapiens, UniProt P28223); assay: Displacement of [3H]ketanserin human recombinant 5-HT2A receptor after 60 mins by scintillation counting analysis
[16] = target: Muscarinic acetylcholine receptor M3 (Homo sapiens, UniProt P20309); assay: Displacement of [3H]4-DAMP from human recombinant M3 receptor at 10 uM after 60 mins by scintillation counting analysis relative to control
D(1A) dopamine receptor = D(1A) dopamine receptor (Homo sapiens, UniProt P21728); assay: Displacement of [3H]-SCH 23390 from human recombinant dopamine D1 receptor at 10 uM after 60 mins by scintillation counting analysis relative to control
[17] = target: T1, Neurotensin receptor type 1; assay: Displacement of [125I]Tyr3-neurotensin from human recombinant NTS1 receptor at 1 uM after 120 mins by scintillation counting analysis relative to control
[18] = target: Rho-associated protein kinase 1 (Homo sapiens) (UniProt Q13464); assay: Inhibition of recombinant N-terminal GST-tagged human ROCK1 catalytic domain (1 to 535 residues) expressed in baculovirus expression system at 10 uM in presence of ATP relative to control
[19] = target: 5-hydroxytryptamine receptor 6 (Homo sapiens, UniProt P50406); assay: Displacement of [3H]LSD from human recombinant 5-HT6 receptor after 120 mins by scintillation counting analysis
[20] = target: Neuropeptide Y receptor type 2 (Homo sapiens) (UniProt P49146); assay: Displacement of [125I]peptide YY from human Y2 receptor at 1 uM after 120 mins by scintillation counting analysis relative to control
Rattus norvegicus = organism: Rattus norvegicus; assay: Displacement of [125I]alpha-dendrotoxin from rat brain voltage-gated K channel at 1 uM after 60 mins by scintillation counting analysis relative to control
Histamine H2 receptor = Histamine H2 receptor (Homo sapiens, UniProt P25021); assay: Displacement of [125I]APT from human recombinant histamine H2 receptor after 120 mins by scintillation counting analysis
Histamine H1 receptor = Histamine H1 receptor (Homo sapiens, UniProt P35367); assay: Displacement of [3H]pyrilamine from human recombinant histamine H1 receptor at 10 uM after 60 mins by scintillation counting analysis relative to control
Vasopressin V1a receptor [21] = target: T3, Vasopressin V1a receptor; assay: Displacement of [3H]AVP from human recombinant V1a receptor at 1 uM after 60 mins by scintillation counting analysis relative to control
[22] = target: Cholecystokinin receptor type A (Homo sapiens, UniProt P32238); assay: Displacement of [125I]CCK-8s from human recombinant CCK1 receptor after 60 mins by scintillation counting analysis
[23] = target: Mitogen-activated protein kinase 3 (Homo sapiens) (UniProt P27361); assay: Inhibition of recombinant full length GST-tagged human ERK1 expressed in Escherichia coli at 10 uM in presence of ATP relative to control

T1 sequence (P30989 whole entry): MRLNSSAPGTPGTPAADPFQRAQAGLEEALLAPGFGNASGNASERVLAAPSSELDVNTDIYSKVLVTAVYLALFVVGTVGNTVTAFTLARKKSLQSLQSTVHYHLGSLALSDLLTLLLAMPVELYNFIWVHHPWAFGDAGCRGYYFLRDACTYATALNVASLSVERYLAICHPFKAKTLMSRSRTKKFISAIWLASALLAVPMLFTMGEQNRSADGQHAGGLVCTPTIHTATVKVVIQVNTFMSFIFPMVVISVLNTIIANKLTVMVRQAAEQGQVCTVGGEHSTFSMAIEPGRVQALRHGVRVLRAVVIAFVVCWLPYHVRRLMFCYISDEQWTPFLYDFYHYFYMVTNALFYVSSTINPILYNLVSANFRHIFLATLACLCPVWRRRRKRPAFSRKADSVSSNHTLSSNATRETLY
Chain of 5-hydroxytryptamine receptor 2A (P28223 whole entry): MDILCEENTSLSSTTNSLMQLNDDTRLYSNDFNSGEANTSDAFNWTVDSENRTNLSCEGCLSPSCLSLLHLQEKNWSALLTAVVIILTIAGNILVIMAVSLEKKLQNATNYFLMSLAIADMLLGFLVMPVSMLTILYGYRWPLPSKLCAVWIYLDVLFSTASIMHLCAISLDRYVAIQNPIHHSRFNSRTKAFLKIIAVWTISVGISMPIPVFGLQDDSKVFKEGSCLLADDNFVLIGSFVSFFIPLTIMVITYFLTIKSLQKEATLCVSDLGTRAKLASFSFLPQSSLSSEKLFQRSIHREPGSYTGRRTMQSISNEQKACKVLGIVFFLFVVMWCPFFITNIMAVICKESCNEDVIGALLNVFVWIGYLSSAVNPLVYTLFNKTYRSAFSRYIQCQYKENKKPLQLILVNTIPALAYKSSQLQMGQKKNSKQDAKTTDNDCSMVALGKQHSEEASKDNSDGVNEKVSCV
Chain of C-X-C chemokine receptor type 2 (Homo sapiens) (P25025 whole entry): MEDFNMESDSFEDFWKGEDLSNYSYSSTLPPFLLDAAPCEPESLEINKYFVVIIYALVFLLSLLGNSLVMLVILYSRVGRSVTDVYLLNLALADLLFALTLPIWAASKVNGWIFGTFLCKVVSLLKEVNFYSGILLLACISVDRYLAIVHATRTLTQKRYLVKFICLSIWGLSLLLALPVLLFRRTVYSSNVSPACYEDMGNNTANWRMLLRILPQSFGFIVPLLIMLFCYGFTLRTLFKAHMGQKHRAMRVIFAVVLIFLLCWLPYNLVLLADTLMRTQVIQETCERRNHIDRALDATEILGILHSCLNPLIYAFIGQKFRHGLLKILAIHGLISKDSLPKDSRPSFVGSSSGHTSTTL
Chain of Endothelin-1 receptor (Homo sapiens) (P25101 whole entry): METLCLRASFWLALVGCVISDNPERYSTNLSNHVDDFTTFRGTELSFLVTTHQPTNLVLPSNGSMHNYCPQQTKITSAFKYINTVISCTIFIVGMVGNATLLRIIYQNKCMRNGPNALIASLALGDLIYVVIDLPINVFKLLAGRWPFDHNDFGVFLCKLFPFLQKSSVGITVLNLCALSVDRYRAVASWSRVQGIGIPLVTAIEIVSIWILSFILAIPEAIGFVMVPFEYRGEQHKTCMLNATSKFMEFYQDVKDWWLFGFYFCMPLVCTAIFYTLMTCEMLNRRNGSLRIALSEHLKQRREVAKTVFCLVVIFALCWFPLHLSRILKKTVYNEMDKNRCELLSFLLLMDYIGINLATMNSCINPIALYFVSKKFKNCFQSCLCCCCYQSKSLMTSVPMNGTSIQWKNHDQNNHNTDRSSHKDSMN
Chain of Epidermal growth factor receptor (Homo sapiens) (P00533 whole entry, the tested form may be a part): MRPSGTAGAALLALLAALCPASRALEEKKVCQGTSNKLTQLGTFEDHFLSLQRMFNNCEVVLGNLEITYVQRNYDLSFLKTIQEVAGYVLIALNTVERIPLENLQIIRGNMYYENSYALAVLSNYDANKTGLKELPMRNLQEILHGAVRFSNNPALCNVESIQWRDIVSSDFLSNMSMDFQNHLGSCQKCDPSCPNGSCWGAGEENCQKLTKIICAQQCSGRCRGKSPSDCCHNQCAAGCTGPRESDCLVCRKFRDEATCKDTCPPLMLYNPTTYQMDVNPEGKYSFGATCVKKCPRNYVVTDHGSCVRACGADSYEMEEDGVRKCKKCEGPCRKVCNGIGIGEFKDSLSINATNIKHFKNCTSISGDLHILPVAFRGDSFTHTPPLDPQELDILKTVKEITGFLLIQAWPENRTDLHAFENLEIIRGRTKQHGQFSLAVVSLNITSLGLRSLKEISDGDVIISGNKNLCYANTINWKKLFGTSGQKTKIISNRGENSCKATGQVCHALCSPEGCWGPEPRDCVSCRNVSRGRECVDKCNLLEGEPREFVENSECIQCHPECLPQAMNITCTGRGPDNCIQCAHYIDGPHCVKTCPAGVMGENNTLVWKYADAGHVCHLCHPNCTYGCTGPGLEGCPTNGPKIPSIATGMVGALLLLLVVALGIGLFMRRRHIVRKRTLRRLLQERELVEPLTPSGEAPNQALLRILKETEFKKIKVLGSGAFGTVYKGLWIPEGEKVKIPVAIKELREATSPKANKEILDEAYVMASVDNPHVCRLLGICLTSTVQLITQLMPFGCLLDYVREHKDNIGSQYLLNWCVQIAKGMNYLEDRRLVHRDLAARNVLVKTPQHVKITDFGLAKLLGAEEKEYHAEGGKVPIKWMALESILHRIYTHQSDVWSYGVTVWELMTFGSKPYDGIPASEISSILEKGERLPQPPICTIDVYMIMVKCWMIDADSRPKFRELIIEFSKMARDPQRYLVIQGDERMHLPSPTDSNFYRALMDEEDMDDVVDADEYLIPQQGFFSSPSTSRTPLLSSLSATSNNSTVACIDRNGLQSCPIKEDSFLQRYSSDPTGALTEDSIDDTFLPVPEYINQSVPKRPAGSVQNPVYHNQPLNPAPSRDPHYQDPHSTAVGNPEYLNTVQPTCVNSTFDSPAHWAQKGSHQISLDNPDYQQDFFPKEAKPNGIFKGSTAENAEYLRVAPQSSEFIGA
Chain of Muscarinic acetylcholine receptor M3 (P20309 whole entry, looked up): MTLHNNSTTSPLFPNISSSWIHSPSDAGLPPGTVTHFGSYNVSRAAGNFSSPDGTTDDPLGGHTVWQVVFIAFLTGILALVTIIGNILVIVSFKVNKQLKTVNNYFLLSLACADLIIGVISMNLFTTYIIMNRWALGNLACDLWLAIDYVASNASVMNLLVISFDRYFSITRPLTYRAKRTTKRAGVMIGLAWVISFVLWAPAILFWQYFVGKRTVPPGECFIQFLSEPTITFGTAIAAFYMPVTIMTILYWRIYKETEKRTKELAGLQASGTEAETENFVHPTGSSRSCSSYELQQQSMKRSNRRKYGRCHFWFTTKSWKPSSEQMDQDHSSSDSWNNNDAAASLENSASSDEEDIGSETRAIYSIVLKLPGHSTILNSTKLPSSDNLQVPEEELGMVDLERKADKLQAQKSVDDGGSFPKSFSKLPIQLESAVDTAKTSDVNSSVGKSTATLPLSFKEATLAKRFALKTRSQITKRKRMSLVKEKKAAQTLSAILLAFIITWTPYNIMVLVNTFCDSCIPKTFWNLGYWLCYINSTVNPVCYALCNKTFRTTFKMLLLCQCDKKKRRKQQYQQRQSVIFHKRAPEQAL
Chain of Mitogen-activated protein kinase 1 (Homo sapiens) (P28482 whole entry): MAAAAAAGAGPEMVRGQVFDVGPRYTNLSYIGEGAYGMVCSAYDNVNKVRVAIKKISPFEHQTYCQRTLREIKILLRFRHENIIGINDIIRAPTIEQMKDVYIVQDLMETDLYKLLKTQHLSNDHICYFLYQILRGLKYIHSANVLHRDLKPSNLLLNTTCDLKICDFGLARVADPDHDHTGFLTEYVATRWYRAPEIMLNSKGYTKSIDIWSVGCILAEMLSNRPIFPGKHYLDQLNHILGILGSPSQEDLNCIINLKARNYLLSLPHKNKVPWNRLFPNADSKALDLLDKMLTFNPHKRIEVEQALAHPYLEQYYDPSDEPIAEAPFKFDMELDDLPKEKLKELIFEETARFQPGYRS
Chain of D(1A) dopamine receptor (P21728 whole entry): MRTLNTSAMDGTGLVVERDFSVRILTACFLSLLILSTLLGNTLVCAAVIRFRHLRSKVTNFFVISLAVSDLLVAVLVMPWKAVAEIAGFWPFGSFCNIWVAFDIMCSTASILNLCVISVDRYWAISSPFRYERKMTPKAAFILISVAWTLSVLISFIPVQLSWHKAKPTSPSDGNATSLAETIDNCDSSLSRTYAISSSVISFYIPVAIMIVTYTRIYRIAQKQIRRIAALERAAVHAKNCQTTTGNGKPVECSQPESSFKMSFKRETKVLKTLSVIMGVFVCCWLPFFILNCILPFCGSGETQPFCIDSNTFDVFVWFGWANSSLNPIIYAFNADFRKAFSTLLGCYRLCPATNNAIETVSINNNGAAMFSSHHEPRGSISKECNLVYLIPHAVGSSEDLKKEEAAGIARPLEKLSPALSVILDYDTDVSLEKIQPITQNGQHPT
Chain of Neuromedin-K receptor (Homo sapiens) (P29371 whole entry, the tested form may be a part): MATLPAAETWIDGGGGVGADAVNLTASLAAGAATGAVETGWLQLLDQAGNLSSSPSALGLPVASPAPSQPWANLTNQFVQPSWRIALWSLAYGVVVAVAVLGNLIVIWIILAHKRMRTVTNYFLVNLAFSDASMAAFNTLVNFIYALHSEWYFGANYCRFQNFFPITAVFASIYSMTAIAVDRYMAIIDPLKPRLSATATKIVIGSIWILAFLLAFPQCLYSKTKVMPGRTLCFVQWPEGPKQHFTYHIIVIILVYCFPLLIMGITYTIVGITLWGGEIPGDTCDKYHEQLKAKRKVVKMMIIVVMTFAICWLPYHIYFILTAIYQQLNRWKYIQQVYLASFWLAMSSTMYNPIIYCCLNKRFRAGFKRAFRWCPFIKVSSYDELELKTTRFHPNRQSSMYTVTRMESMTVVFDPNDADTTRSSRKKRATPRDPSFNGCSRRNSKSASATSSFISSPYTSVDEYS

For `CC(C)(C)NS(=O)(=O)c1ccc(-c2sc(C(=O)N[C@H]3C[C@H](C(=O)O)C3)nc2CC2CCCCC2)c2ccccc12`, which IC50 (Substance-K receptor) is on record?
Its IC50 is 1.2 nM.

And the IC50 [1]?
Its IC50 is 0.25 nM.

What about the inhibition [2] of the same molecule?
Its inhibition is < 10%.

And the inhibition [3]?
The inhibition was < 10%.

What about the inhibition [4] of the same molecule?
Its inhibition is -6%.

What about the inhibition [5] of the same molecule?
Its inhibition is < 10%.

And the inhibition [6]?
Its inhibition is -3%.

And the inhibition [7]?
Its inhibition is 24%.

And the inhibition [8]?
Its inhibition is 2%.

What about the inhibition [9] of the same molecule?
Its inhibition is < 10%.

What about the Emax at 16 h, 1 µM (PXR (NR1I2)) of the same molecule?
Its Emax at 16 h, 1 µM is 141%.

And the inhibition [10]?
Its inhibition is -4%.

What about the half-life [11] of the same molecule?
The half-life was 47 min.

And the IC50 (Vasopressin V1a receptor [12])?
Its IC50 is 1.1 nM.

And the Cmax [13]?
The Cmax was 130 ng/mL.

And the inhibition [14]?
The inhibition was -6%.

What about the IC50 [15] of the same molecule?
Its IC50 is 0.64 nM.

What about the inhibition [16] of the same molecule?
Its inhibition is 23%.

What about the inhibition (D(1A) dopamine receptor) of the same molecule?
The inhibition was 12%.

What about the inhibition [17] of the same molecule?
The inhibition was < 10%.

And the inhibition [18]?
Its inhibition is -10%.

What about the IC50 [19] of the same molecule?
Its IC50 is 254 nM.

What about the inhibition [20] of the same molecule?
Its inhibition is < 10%.

And the inhibition (Rattus norvegicus)?
Its inhibition is < 10%.

What about the IC50 (Histamine H2 receptor) of the same molecule?
Its IC50 is 142 nM.

What about the inhibition (Histamine H1 receptor) of the same molecule?
Its inhibition is 54%.

What about the inhibition (Vasopressin V1a receptor [21]) of the same molecule?
Its inhibition is < 10%.

And the IC50 [22]?
Its IC50 is 0.12 nM.

What about the inhibition [23] of the same molecule?
The inhibition was -7%.
